Reference: patent US20040192641A1, “Special preparation of anticancer drugs made by novel nanotechnology” (priority 2003, published 2004)

Columns and labels:
[1] = Radiolabelled nanoparticle experiment: circulation of 3H-HHT in blood; assay type: in vivo, mice
Experimental: Mice were used in this experiment. […]
After injection of radioactive ^3H-HHT or PK-^3H-HHT-NP, blood-associated radioactivity was determined.
1 ml of sample of blood was ultracentrifuged at 100,000×g for 1 hour. After discarding the supernatant, the sediment was dispersed again by mechanical stirring in 1.5 ml of distilled water. 100 μl of the sediment or supernatant were then added to 10 ml of scintillation liquid solution. After weighing, the radioactivity of the tissue samples was measured by a scintillation counter.

[2] = system: stem cells of bone marrow; assay: Hemopoietic system: CFU-S in mice treated with cyclophosphamide; assay type: in vivo; conditions: mice treated with CY with or without PK
Text: Effects of PK on hemopoietic system were investigated.

peritoneal macrophage = assay: Phagocytosis of peritoneal macrophage (chick red blood cells); assay type: in vivo, mice; conditions: macrophages with phagocytized chick red blood cells per 100; PK 25 mg/kg i.p. daily 5 days, CY 4.5 mg/kg
Experimental: (§1) Male mice weight 18-20 g were used in the experiments and were divided into treated (PK) and control groups. The dosage of PK was 25 mg/kg injected intraperitoneally. The control mice were injected with same volume of normal saline. These injections were repeated daily for 5 days, both treated and control group were injected intraperitoneally with CY. The dosage of CY is 4.5 mg/kg.
Added 0.02 ml of 5% washed chick red blood cell suspension to 0.5 ml of the peritoneal exudates. Shook gently to mix and incubate at 37° C. for 5 minutes. Dipped two cover slips, closed to each other, in the above mixture and incubated for 30 minutes for the migration of the macrophages along the cover slips, fixed and stained with Sharma stain. Examined microscopically for:
Phagocytic rate—number of macrophages with phagocytized chick red blood cells per 100 macrophages counted. Concentration of PK and CY is the same as Example 2. Pharmacological effects are as illustrated by the following table.

white blood cells = assay: White blood cells assay; assay type: in vivo, mice; conditions: time of treatment 10 days
Experimental: as §1
Action of PK and CY on white blood cells was investigated by means of white blood cells assay. PK protected white blood cells and phagocytosis from the killing effect of CY. The dosage of PK and CY is the same as in Example 4. Time of treatment is 10 days.

lymphocytes = assay: Lymphoblastic transformation, 3H-TdR liquid scintillation assay; assay type: in vivo, mice; conditions: 3H-TdR incorporation; PK and CY as in Example 4
Experimental: By means of ^3H-TdR liquid scintillation assay technique, the action of PK on lymphoblastic transformation was investigated method:
(1) Experimental procedure of animal is the same as in Example 4.
(2) Lemphoblastic transformation test:
I. Reagents and Conditions for Cell Culture
a. Culture media—RPMI 1640, medium 199 minimal essential medium (Eagle).
b. Buffer—Hepes buffer, the final concentration at 37° C. was 25 mM, to maintain the pH of the medium at 7.31.
c. Serum—generally 15-205 fetal bovine serum was incorporated, for lymphocytes from mice, 5% was used.
d. Gaseous phase—5% CO2 in air.
e. Cell concentration—generally 1-2 c 10^6/ml.
f. Stimulants—20 μl/ml for phytohemagglutinin containing polysaccharide (PHA-M) or 10 μl/ml for polysaccharide-free purified phytohemagglutinin (PHA-P).
II. Measured by Liquid Scintillation
a. The conditions of cell culture are same as above. ^3H-TdR was added after 48 hours of incubation at a final concentration of 1 μCi/ml and continued the incubation for 24 hours.
b. Washed the cells twice with cold normal saline and the erythrocytes were lysed. The intact lymphocytes were again washed once with cold saline. Spun down the lymphocytes and added 2 ml of 10% trichloroacetic acid to precipitate the protein. Washed twice with normal saline. […]
c. Added 4 ml of scintillation fluid to 0.1 ml of the final sample and counted in a liquid scintillation counter. […]

Interleukin-2 (rIL-2) = assay: Effect on Interleukin-2; assay type: in vivo, mice; conditions: PK and CY as in Example 4
Text: The method of determination rIL-2 was as same as Example 4.

Row | SMILES | Circulation 3H-HHT in blood ([1]; 1 hour after administration) | Circulation 3H-HHT in blood ([1]; 8 hours after administration) | Circulation 3H-HHT in blood ([1]; 24 hours after administration) | Mean (CFU-S ± SD) [2] | Phagocytic (rate ± SD) (peritoneal macrophage) | Phagocytic (rate ± SD) (white blood cells) | CPM ± SD (lymphocytes) | IL-2 (U/ml) (Interleukin-2 (rIL-2))
1 | COC(=O)C[C@](O)(CCCC(C)(C)O)C(=O)O[C@@H]1C(OC)=C[C@]23CCCN2CCc2cc4c(cc2[C@H]13)OCO4 [^3H-HHT (free)] | 2400 cpm | 90 cpm | 60 cpm |  |  |  |  | 
2 | O=P1(N(CCCl)CCCl)NCCCO1 (centres unmarked) [CY, cyclophosphamide] |  |  |  | 7.6 ± 1.1 | 8.5 ± 0.90 | 6.0 ± 0.70 | 600 ± 65 CPM | 47.5 ± 5.5 U/ml
